Assay results taken from PMC4308083, “Cytokine-Induced Loss of Glucocorticoid Function: Effect of Kinase Inhibitors, Long-Acting β2-Adrenoceptor Agonist and Glucocorticoid Receptor Ligands” (PLoS ONE, 2015).

Tests used:
[1] = test system: 2×GRE reporter; assay: Modulation of dexamethasone/NR3C1 ligand-induced 2×GRE reporter activation (kinase inhibitors, TNF, formoterol) in BEAS-2B cells; type: cell-based, human; details: dexamethasone
Method: BEAS-2B cells stably transfected with a glucocorticoid response element (2×GRE) driven luciferase reporter plasmid, pGL3.neo.TATA.neo [23], were cultured in medium containing 0.25 mg/ml G-418 (Promega, Madison, WI). Cells were grown to confluence in 24 or 48 well plates and incubated overnight in serum-free media prior to experiments. Cells were harvested in reporter lysis buffer and luciferase assays performed according to the manufacturer’s instructions (Firefly Luciferase Assay Kit; Biotium; Hayward, CA) using a 20/20n luminometer (Promega).
Data (n = 7), expressed as a percentage of Dex activation, are plotted as means ± S.E. BEAS-2B 2×GRE cells were pre-treated for 30 min with the indicated concentrations of B. PS or JNK or C. JNK in the presence or absence of 10 μM PS, before addition of 10 ng/ml TNF. After 1 h, 10 μM Dex was added and cells harvested 6 h later for luciferase assay. […] D+T indicates Dex plus TNF treatment.
Data (n = 3–4), expressed as fold activation, are plotted as means ± S.E. D+T indicates Dex plus TNF treatment.
Cells were harvested after 6 h for luciferase assays. Data (n = 7), expressed as fold activation, are plotted as means ± S.E. Lines of best fit were added in panel B. Statistical analyses were performed by ANOVA with a Dunnett’s test comparing each NR3C1 ligand alone versus in the presence of TNF and/or Form. *, P<0.05; **, P<0.01; ***, P<0.001.

[2] = test system: JUN (c-Jun) phosphorylation; assay: Western blot of TNF-induced JUN phosphorylation in BEAS-2B cells; type: cell-based, human; details: 30 min pre-treatment, TNF 10 ng/ml 15 min, western blot (S1 Fig.), read-out: EC50 for decrease of TNF-induced JUN phosphorylation
Source text: Cells were lysed in 1× Laemmli buffer supplemented with phosphatase inhibitors (Sigma-Aldrich) and 1× complete protease inhibitor cocktail (Roche; Indianapolis, IN), size fractionated on 12% acrylamide gels and subsequently electro-transferred onto Hybond enhanced chemiluminescent membranes (GE Healthcare; Waukesha, WI). Membranes were blocked in 5% milk in tris-buffered saline containing 1% tween 20 and probed with antibodies against phospho-jun proto-oncogene (pJUN; pc-Jun) (9164; Cell Signaling Technology; Danvers, MA), nuclear factor of kappa light polypeptide gene enhancer in B-cells inhibitor, alpha (NFKBIA; IκBα) (sc-371; Santa Cruz Biotechnology; Dallas, TX), phospho-NFKBIA (9246; Cell Signaling Technology), phospho-AKT1 (9271S; Cell Signaling Technology), AKT (9272S; Cell Signaling Technology) and GAPDH (4699–9555(ST); AbD Serotec; Raleigh, NC). After washing, membranes were incubated with horseradish peroxidase-conjugated anti-rabbit (111–035–003; Jackson ImmunoResearch Laboratories Inc; West Grove, PA) or anti-mouse immunoglobulin (115–035–003; Jackson ImmunoResearch Laboratories Inc). Detection was by enhanced chemiluminescence (Pierce ECL Western Blotting Substrate; Thermo Fisher Scientific Inc.; Rockford, IL) and visualization by autoradiography. […]

[3] = test system: CDKN1C, DUSP1, RGS2 and TSC22D3 mRNA in BEAS-2B cells; assay: RT-PCR of glucocorticoid-inducible gene expression in BEAS-2B cells; details: JNK inhibitor VIII 3 or 10 μM, PS-1145 10 μM, 6 h (Fig. 7)
Method: Cells were harvested 6 h after Dex addition.
BEAS-2B cells were pre-treated for 30 min with either 10 or 3 μM of the JNK MAPK inhibitor JNK inhibitor VIII (JNK) or 10 μM of the IKK2 inhibitor PS-1145 (PS), before addition of 10 ng/ml tumor necrosis factor-α (TNF).
Cells were harvested 6 h after NR3C1 ligand addition.

With `CCOc1nc(NC(=O)Cc2cc(OC)ccc2OC)cc(N)c1C#N` [JNK inhibitor VIII] the “2×GRE reporter induction restored in presence of TNF, % of that induced by dexamethasone” value ([1]; 10 μM inhibitor 30 min pre-treatment, TNF 10 ng/ml, 6 h (Fig. 3A)) was 77%, the “Effect on dexamethasone-induced 2×GRE reporter activation (concentration-response)” value ([1]; 30 min pre-treatment, 6 h (Fig. 3B, Fig. 4), JNK inhibitor VIII only at 30 μM, PKC inhibitors above 1 μM) was “modestly enhanced” and the “TNF-induced repression reversed to % of the response to dexamethasone” value ([1]; concentration-response, TNF 10 ng/ml, 6 h (Fig. 3B), repression ~60% without inhibitor) was 87%. For the same compound, the EC50 ([1]; read-out: EC50 for reversal of TNF-induced repression of 2×GRE reporter, TNF 10 ng/ml, 6 h (Fig. 3B)) was 1600 nM, the EC50 [2] was ~300 nM and the “Effect on dexamethasone-induced mRNA expression of CDKN1C, DUSP1, RGS2, TSC22D3 in absence or presence of TNF” value [3] was “no significant effect”.
